The values that follow come from patent publication US7851492B2, “ERG channel openers for the treatment of cardiac arrhythmias” (Neurosearch A/S, priority 2003, dated 2010).

Where only a bound is given, the exact number is not on record here.

The target of series [1] is T1, HERG1 channel (Homo sapiens, UniProt Q12809).
T1 construct: expressed in transfected cells; host or cells: Xenopus laevis oocytes (transient expression, vector pXOOM)
The series is described as follows: HERG1 current by 2-electrode voltage clamp in Xenopus laevis oocytes transiently expressing HERG1 channels. Format: cell-based. The method, then:
The HERG1 channel is expressed in HEK293 cells. The gene encoding the HERG1 channel was cloned as described by Warmke & Ganetzky, Proc. Natl. Acad. Sci. USA 1994 91 3438-3442.
(§1) To ensure functional expression in HEK293 cells, the HERG1 gene was sub-cloned in the shuttle-vector pXOOM as described by Jespersen et al.; Biotechniques 2002 32 536-540.
The electrical current through the HERG1 channel is measured using 2-electrode voltage clamp technology. HERG1 current is activated by a step protocol.
In brief, this protocol goes from a resting membrane potential of −80 mV (lasting 3 seconds) to a 1 second depolarisation step at +10 mV, followed by a repolarisation step at −60 mV. The protocol is repeated up to 500 times.
Xenopus laevis oocytes transiently expressing HERG1 channels where challenged by a voltage protocol from −80 mV to +10 mV to −60 mV. This protocol was repeated every 7th second until a stable current level was obtained.

Series [2] addresses T1, HERG1 channel. In words: HERG1 current by patch clamp with simulated cardiac action potential in HEK293 cells stably expressing HERG1 channels. Format: cell-based. The method, then:
In this example the HERG1 channel opening activity of a diphenyl urea derivative for use according to the invention, 1-(3-Trifluoromethyl-phenyl)-3-(2-hydroxy-5-chlorophenyl)-urea (Compound A), is determined using mammalian HEK293 cells stably expressing HERG1 channels.
The HERG1 channel is expressed in HEK293 cells. The gene encoding the HERG1 channel was cloned as described by Warmke & Ganetzky; Proc. Natl. Acad. Sci. USA 1994 91 3438-3442.
as §1
Mammalian expression is obtained by stable transfection of the gene construct in HEK293 cells.
The electrical current through the HERG1 channel is measured using patch clamp technology. HERG1 current is activated by simulated cardiac action potentials.
In brief, this protocol goes from a resting membrane potential of −90 mV to a short initial depolarisation step to +30 mV, followed by a ramp ending at 0 mV. This plateau phase is ended by a repolarisation, going from −15 mV to −90 mV in 70 ms, back to the resting membrane potential, as also shown in the voltage protocol in FIG. 1.
Having reached a stable current level, Compound A was added.

The subject of series [3] is awake guinea pigs. In words: Awake guinea-pig telemetry model: QT intervals in electrocardiograms. Format: in vivo. The following applies: 50 mg/kg IV. The method, then:
Compounds were dosed IV, and ECG's and heart rate were measured. QT intervals were corrected (QTc) for any change in heart rate.

The test system of series [4] is native cardiac myocytes. The series is described as follows: Modulation of action potentials in native cardiac myocytes (patch clamp, current clamp mode). Format: cell-based, guinea pig. On the procedure:
In this example the activity on native cardiac myocytes from guinea pigs of a compound representative of the invention, 1,3-Bis-(2-hydroxy-5-trifluoromethyl-phenyl)-urea (Compound C), obtained as described in WO 2002/064128, is determined.
The membrane potential of native cardiomyocytes was determined using the patch clamp technique in current clamp mode. The membrane potential was adjusted to approximately −80 mV before start of experiments. Cells were challenged by 20 repetitive rounds of current applications. A single round of application was as follows: Action potentials were evoked by applying a single current pulse of 1 nA lasting from 5-15 ms. The single pulse was followed by 30 repetitive pulses lasting 1-5 ms and with a current amplitude of 100-700 pA. The repetitive pulses were applied at the end of the evoked action potential. These experiments were conducted in the presence or absence of Compound C.
Native cardiomyocytes responded to the described voltage protocol by eliciting an actionpotential.
(Patch clamp records ionic current or voltage across a cell membrane.)

[5] abbreviates: native guinea pig cardiomyocytes, current clamp, Example 3.

T1 sequence (Q12809 whole entry): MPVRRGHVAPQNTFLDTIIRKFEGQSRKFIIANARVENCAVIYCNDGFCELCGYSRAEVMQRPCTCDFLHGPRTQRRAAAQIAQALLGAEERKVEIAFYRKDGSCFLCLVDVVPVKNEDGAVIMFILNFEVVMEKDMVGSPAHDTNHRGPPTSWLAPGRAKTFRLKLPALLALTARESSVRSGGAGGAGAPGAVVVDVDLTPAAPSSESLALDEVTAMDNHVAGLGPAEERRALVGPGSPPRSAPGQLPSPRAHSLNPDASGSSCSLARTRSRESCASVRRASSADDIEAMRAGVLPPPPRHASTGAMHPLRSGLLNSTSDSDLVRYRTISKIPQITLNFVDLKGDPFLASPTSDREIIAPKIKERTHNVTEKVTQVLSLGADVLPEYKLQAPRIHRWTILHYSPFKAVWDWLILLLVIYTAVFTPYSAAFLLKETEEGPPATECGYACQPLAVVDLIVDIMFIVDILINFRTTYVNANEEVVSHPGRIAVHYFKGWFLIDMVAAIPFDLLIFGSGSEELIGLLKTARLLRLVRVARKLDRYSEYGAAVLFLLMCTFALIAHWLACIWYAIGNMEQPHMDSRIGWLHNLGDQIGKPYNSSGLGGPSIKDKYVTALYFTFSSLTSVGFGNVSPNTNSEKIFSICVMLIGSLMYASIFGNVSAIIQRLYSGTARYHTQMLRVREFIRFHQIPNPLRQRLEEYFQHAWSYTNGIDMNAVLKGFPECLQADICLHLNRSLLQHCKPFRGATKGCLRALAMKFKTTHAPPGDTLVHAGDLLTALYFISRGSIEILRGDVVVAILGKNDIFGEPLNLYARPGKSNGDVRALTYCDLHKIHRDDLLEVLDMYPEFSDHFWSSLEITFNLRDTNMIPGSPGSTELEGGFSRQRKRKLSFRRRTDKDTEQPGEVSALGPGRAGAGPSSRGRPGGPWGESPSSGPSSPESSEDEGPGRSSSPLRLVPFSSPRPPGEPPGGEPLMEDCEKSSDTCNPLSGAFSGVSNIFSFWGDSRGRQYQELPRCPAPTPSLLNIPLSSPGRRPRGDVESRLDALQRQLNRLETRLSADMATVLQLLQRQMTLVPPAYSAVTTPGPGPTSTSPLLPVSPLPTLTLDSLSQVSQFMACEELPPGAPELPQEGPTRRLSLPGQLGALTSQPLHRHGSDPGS

As a reminder, the melting point is the temperature, or range, at which the solid turns liquid. Compound `O=C(Nc1cc(C(F)(F)F)ccc1O)Nc1ccccc1C(F)(F)F` [Compound 1, 1-(2-Hydroxy-5-trifluoromethyl-phenyl)-3-(2-trifluoromethyl-phenyl)-urea] showed a melting point of 158 to 159 °C.

`O=C(Nc1ncccn1)Nc1ccccc1C(F)(F)F` [Compound 2, 1-Pyrimidin-2-yl-3-(2-trifluoromethyl-phenyl)-urea] came in with a melting point of 224 to 225 °C.

For the compound `O=C(Nc1cc(Cl)ccc1O)Nc1ccccc1C(F)(F)F` [Compound 3, 1-(5-Chloro-2-hydroxy-phenyl)-3-(2-trifluoromethyl-phenyl)-urea], the melting point lay within 183 to 184 °C.

Take `COc1ccc(NC(=O)Nc2cccc(C(F)(F)F)c2)c(O)n1` [Compound 4, 1-(2-Hydroxy-6-methoxy-pyridin-3-yl)-3-(3-trifluoromethyl-phenyl)-urea]: the melting point is 223 to 224 °C.

On to `O=C(Nc1cccc(C(F)(F)F)c1)Nc1c(C(=O)O)[nH]c(=O)[nH]c1=O` [Compound 7, 2,6-Dioxo-5-[3-(3-trifluoromethyl-phenyl)-ureido]-1,2,3,6-tetrahydro-pyrimidine-4-carboxylic acid], for which the melting point is greater than 300 °C.

`O=C(Nc1cccc(C(F)(F)F)c1)Nc1nccnc1C(=O)O` [Compound 8, 3-[3-(3-Trifluoromethyl-phenyl)-ureido]-pyrazine-2-carboxylic acid] displayed a melting point greater than 300 °C.

`O=C(Nc1ccccc1F)Nc1cc(Cl)ccc1C(=O)O` [Compound 9, 4-Chloro-2-[3-(2-fluoro-phenyl)-ureido]-benzoic acid] showed a melting point of 195 to 197 °C.

In turn, `CN(C)C(=O)CCc1ccc(NC(=O)Nc2ccc(Cl)c(C(F)(F)F)c2)c(-c2nnn[nH]2)c1` [Compound 11, 3-[4-[3-(4-Chloro-3-trifluoromethyl-phenyl)-ureido]-3-(1H-tetrazol-5-yl)-phenyl]-N,N-dimethyl-propionamide] had a melting point of 184.5 to 189.3 °C.

For the compound `O=C(Nc1cc(Cl)cc(Cl)c1)Nc1ccc(Cl)cc1-c1nnn[nH]1` [Compound 12, 1-[4-Chloro-2-(1H-tetrazol-5-yl)-phenyl]-3-(3,5-dichloro-phenyl)-urea], the melting point fell in the range of 234 to 236 °C.

As for `O=C(Nc1ccc(-c2ccccc2)cc1-c1nnn[nH]1)c1cc(C(F)(F)F)cc(C(F)(F)F)c1` [Compound 15, N-[3-(1H-Tetrazol-5-yl)-biphenyl-4-yl]-3,5-bis-trifluoromethyl-benzamide], the melting point is 156 °C (dec.). Besides, the HERG1 current entry in series [1] (1-30 μM) is recorded as “increase”. In series [1] (voltage protocol −80 mV to +10 mV to −60 mV (FIG. 2)), the “repolarisation current recorded at −60 mV” value is “marked increase”.

On to `O=C(Nc1ccc(Nc2ccc(Cl)cc2)c(Cl)c1)c1cc([N+](=O)[O-])ccc1O` [Compound 17, N-[3-Chloro-4-(4-chloro-phenylamino)-phenyl]-2-hydroxy-5-nitro-benzamide], for which the melting point is > 219 °C (dec.).

Regarding `O=C(Nc1cccc(C(F)(F)F)c1)Nc1cc(Cl)ccc1O` [Compound A, 1-(3-Trifluoromethyl-phenyl)-3-(2-hydroxy-5-chlorophenyl)-urea], in series [2] (HEK293 cells stably expressing HERG1, simulated cardiac action potential, 10 μM (FIG. 1)), the repolarisation current entry was “marked increase”. Moreover, in series [2] (HEK293 cells, 3-30 μM), the “current during the last phase of the cardiac simulating voltage protocol (repolarisation current)” value is “increase”. Moreover, in series [2] (HEK293 cells, simulated cardiac action potential), the “HERG1 current in the first 200 ms of the resting phase” value is “increased”.

As for `O=C(Nc1cccc(C(F)(F)F)c1)Nc1ccc(Br)cc1-c1nnn[nH]1` [Compound B, 1-(3-Trifluoromethyl-phenyl)-3-[2-(1H-tetrazol-5-yl)-4-bromo-phenyl] urea], the “reduction of the length of the corrected QT interval (QTc) compared to controls” value in series [3] is reported as 23%.

`O=C(Nc1cc(C(F)(F)F)ccc1O)Nc1cc(C(F)(F)F)ccc1O` [Compound C, 1,3-Bis-(2-hydroxy-5-trifluoromethyl-phenyl)-urea]: in series [4] (setting [5]), the “cardiac action potential duration” value is reported as “shorting of the cardiac action potential” and the “membrane potential in the presence of the 30 repetitive pulses” value is “stable membrane potential”. Also, the “rounds of current applications in which stabilisation was observed” value in series [4] (of 20 rounds of current applications) came to 20 rounds.
